Laboratory results: the supplement of paper PMC10307832

Assays:
Assay in all cases: relative viability (nuclei count vs DMSO), 5 days (fraction); higher = more cells survive
COR-L 105 = test system: COR-L 105
Procedure, shortened: (§1)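 Relative viability divides the nuclei count in treated wells by that in vehicle wells. Lung cancer cell lines were seeded in 1536-well plates, dosed by pin tool the next day, and fixed and stained after 5 days in one step with final 0.05% Triton X-100, 1% formaldehyde and 1 ug/ml Hoechst. Dosing was a single drug or a fixed anchor-drug dose plus five library-drug doses (not always all listed) in √10 steps, and values are medians of duplicate plates imaged at 4×.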

LCLC-103H = test system: LCLC-103H
Procedure, shortened: as §1

LK-2 = test system: LK-2
Procedure, shortened: as §1

NCI-H1355 = test system: NCI-H1355
Procedure, shortened: as §1

NCI-H1623 = test system: NCI-H1623
Procedure, shortened: as §1

NCI-H1666 = test system: NCI-H1666
Procedure, shortened: as §1

NCI-H520 = test system: NCI-H520
Procedure, shortened: as §1

NCI-H522 = test system: NCI-H522
Procedure, shortened: as §1

## CC(=O)O[C@@]12CO[C@@H]1C[C@H](O)[C@@]1(C)C(=O)[C@H](O)C3=C(C)[C@@H](OC(=O)[C@H](O)[C@@H](NC(=O)OC(C)(C)C)c4ccccc4)C[C@@](O)([C@@H](OC(=O)c4ccccc4)[C@H]21)C3(C)C [Docetaxel] + Cc1nc(Nc2ncc(C(=O)Nc3c(C)cccc3Cl)s2)cc(N2CCN(CCO)CC2)n1 [Dasatinib] (partner 0.075 µM)
COR-L 105; first compound 0.0002 µM
  relative viability: 0.322
COR-L 105; first compound 0.000632 µM
  relative viability: 0.288
COR-L 105; first compound 0.002 µM
  relative viability: 0.224
COR-L 105; first compound 0.006325 µM
  relative viability: 0.249
COR-L 105; first compound 0.02 µM
  relative viability: 0.202
LCLC-103H; first compound 0.0002 µM
  relative viability: 0.34
LCLC-103H; first compound 0.000632 µM
  relative viability: 0.456
LCLC-103H; first compound 0.002 µM
  relative viability: 0.337
LCLC-103H; first compound 0.006325 µM
  relative viability: 0.311
LCLC-103H; first compound 0.02 µM
  relative viability: 0.19
LK-2; first compound 0.0002 µM
  relative viability: 0.212
LK-2; first compound 0.000632 µM
  relative viability: 0.268
LK-2; first compound 0.002 µM
  relative viability: 0.181
LK-2; first compound 0.006325 µM
  relative viability: 0.21
LK-2; first compound 0.02 µM
  relative viability: 0.113
NCI-H1355; first compound 0.0002 µM
  relative viability: 0.726
NCI-H1355; first compound 0.000632 µM
  relative viability: 0.665
NCI-H1355; first compound 0.002 µM
  relative viability: 0.472
NCI-H1355; first compound 0.006325 µM
  relative viability: 0.314
NCI-H1355; first compound 0.02 µM
  relative viability: 0.203
NCI-H1623; first compound 0.0002 µM
  relative viability: 0.555
NCI-H1623; first compound 0.000632 µM
  relative viability: 0.529
NCI-H1623; first compound 0.002 µM
  relative viability: 0.472
NCI-H1623; first compound 0.006325 µM
  relative viability: 0.313
NCI-H1623; first compound 0.02 µM
  relative viability: 0.239
NCI-H1666; first compound 0.0002 µM
  relative viability: 0.684
NCI-H1666; first compound 0.000632 µM
  relative viability: 0.594
NCI-H1666; first compound 0.002 µM
  relative viability: 0.465
NCI-H1666; first compound 0.006325 µM
  relative viability: 0.414
NCI-H1666; first compound 0.02 µM
  relative viability: 0.284
NCI-H520; first compound 0.0002 µM
  relative viability: 0.186
NCI-H520; first compound 0.000632 µM
  relative viability: 0.194
NCI-H520; first compound 0.002 µM
  relative viability: 0.164
NCI-H520; first compound 0.006325 µM
  relative viability: 0.159
NCI-H520; first compound 0.02 µM
  relative viability: 0.126
NCI-H522; first compound 0.0002 µM
  relative viability: 0.712
NCI-H522; first compound 0.000632 µM
  relative viability: 0.866
NCI-H522; first compound 0.002 µM
  relative viability: 0.649
NCI-H522; first compound 0.006325 µM
  relative viability: 0.672
NCI-H522; first compound 0.02 µM
  relative viability: 0.49

## COc1cc2nccc(Oc3ccc(NC(=O)Nc4cc(C)on4)c(Cl)c3)c2cc1OC [Tivozanib] + Cc1nc(Nc2ncc(C(=O)Nc3c(C)cccc3Cl)s2)cc(N2CCN(CCO)CC2)n1 [Dasatinib] (partner 0.075 µM)
COR-L 105; first compound 0.005 µM
  relative viability: 0.34
COR-L 105; first compound 0.01581 µM
  relative viability: 0.361
COR-L 105; first compound 0.05 µM
  relative viability: 0.467
COR-L 105; first compound 0.1581 µM
  relative viability: 0.269
COR-L 105; first compound 0.5 µM
  relative viability: 0.354
LCLC-103H; first compound 0.005 µM
  relative viability: 0.459
LCLC-103H; first compound 0.01581 µM
  relative viability: 0.524
LCLC-103H; first compound 0.05 µM
  relative viability: 0.513
LCLC-103H; first compound 0.1581 µM
  relative viability: 0.433
LCLC-103H; first compound 0.5 µM
  relative viability: 0.469
LK-2; first compound 0.005 µM
  relative viability: 0.226
LK-2; first compound 0.01581 µM
  relative viability: 0.29
LK-2; first compound 0.05 µM
  relative viability: 0.289
LK-2; first compound 0.1581 µM
  relative viability: 0.214
LK-2; first compound 0.5 µM
  relative viability: 0.23
NCI-H1355; first compound 0.005 µM
  relative viability: 0.672
NCI-H1355; first compound 0.01581 µM
  relative viability: 0.689
NCI-H1355; first compound 0.05 µM
  relative viability: 0.787
NCI-H1355; first compound 0.1581 µM
  relative viability: 0.413
NCI-H1355; first compound 0.5 µM
  relative viability: 0.691
NCI-H1623; first compound 0.005 µM
  relative viability: 0.509
NCI-H1623; first compound 0.01581 µM
  relative viability: 0.56
NCI-H1623; first compound 0.05 µM
  relative viability: 0.578
NCI-H1623; first compound 0.5 µM
  relative viability: 0.527
NCI-H1666; first compound 0.005 µM
  relative viability: 0.785
NCI-H1666; first compound 0.01581 µM
  relative viability: 0.831
NCI-H1666; first compound 0.05 µM
  relative viability: 0.801
NCI-H1666; first compound 0.1581 µM
  relative viability: 0.819
NCI-H1666; first compound 0.5 µM
  relative viability: 0.825
NCI-H520; first compound 0.005 µM
  relative viability: 0.183
NCI-H520; first compound 0.01581 µM
  relative viability: 0.201
NCI-H520; first compound 0.05 µM
  relative viability: 0.232
NCI-H520; first compound 0.1581 µM
  relative viability: 0.175
NCI-H520; first compound 0.5 µM
  relative viability: 0.182
NCI-H522; first compound 0.005 µM
  relative viability: 0.731
NCI-H522; first compound 0.01581 µM
  relative viability: 0.9
NCI-H522; first compound 0.05 µM
  relative viability: 0.836
NCI-H522; first compound 0.1581 µM
  relative viability: 0.845
NCI-H522; first compound 0.5 µM
  relative viability: 0.74
